{"source": "patent US20080015237A1", "about": "(ASTRAZENECA AB, priority 2006, published 2008)"}
{"molecular_target": "human Kv1.5 channel (Homo sapiens, UniProt P22460)", "sequence (P22460 whole entry)": "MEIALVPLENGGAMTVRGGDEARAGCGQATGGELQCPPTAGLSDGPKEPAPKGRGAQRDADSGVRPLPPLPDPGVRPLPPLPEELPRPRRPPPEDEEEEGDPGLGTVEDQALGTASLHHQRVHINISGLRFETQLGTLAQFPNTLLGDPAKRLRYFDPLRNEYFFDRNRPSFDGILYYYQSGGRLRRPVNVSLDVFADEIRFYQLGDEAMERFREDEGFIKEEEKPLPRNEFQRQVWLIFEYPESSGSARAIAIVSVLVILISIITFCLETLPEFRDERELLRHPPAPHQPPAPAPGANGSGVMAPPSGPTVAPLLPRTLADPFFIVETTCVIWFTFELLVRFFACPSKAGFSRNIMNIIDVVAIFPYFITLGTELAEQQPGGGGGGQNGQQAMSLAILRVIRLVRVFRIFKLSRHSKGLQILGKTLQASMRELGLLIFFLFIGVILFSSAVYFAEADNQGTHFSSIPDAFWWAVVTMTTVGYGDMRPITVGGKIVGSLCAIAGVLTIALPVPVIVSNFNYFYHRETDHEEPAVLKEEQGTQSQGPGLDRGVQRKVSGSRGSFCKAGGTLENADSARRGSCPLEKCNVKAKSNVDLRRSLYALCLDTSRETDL", "experiment": "Test A: Rb+ efflux assay", "type": "cell-based", "details": "CHO cells stably transfected with cDNA for human Kv1.5", "protocol": "This assay identifies compounds that block the human Kv1.5 channel potassium channel heterologously expressed in Chinese Hamster Ovary (CHO) cells by means of Rb+ ion efflux using Flame Atomic Absorption Spectroscopy. For experimental studies, CHO cells stably transfected with cDNA for human Kv1.5 were grown as confluent layers in Falcon, 384-well tissue culture-treated black-walled clear-bottomed plates and the plates were incubated overnight at 37° C. in a cell culture incubator.\nAfter incubating overnight the cell plates were washed and a buffer containing Rb+ ions were added to the cell plates. The plates were then incubated for another 3-4 hours in a CO2-incubator (37° C.). Following this incubation period plates were washed, compounds were added and subsequently a buffer containing elevated K+ concentrations were added in order to activate the Kv1.5 channel. Following a short incubation time, aliquots of the supernatants were transferred to supernatant plates for subsequent determination of the Rb+ content using Atomic Absorption Spectrometry (ICR8000 instrument, Aurora Biomed Inc.).", "units": {"IC50": "nM"}}
{"compound": "O=C(NCCCC(F)(F)F)C1c2cc(Cl)ccc2C(=O)N1Cc1ccccc1C(F)(F)F", "note": "(stereo not drawn) [6-chloro-3-oxo-N-(4,4,4-trifluorobutyl)-2-[2-(trifluoromethyl)benzyl]isoindoline-1-carboxamide]", "IC50": 2500}
{"compound": "C[C@H](c1ccccc1)N1C(=O)c2ccc(Cl)cc2C1C(=O)NCc1ccccc1", "note": "(stereo partly drawn) [N-benzyl-6-chloro-3-oxo-2-[(1R)-1-phenylethyl]isoindoline-1-carboxamide]", "IC50": 550}
{"compound": "CC(CN1C(=O)c2ccccc2C1C(=O)NCc1ccccc1C(F)(F)F)c1ccc(Cl)cc1", "note": "(stereo not drawn) [2-[2-(4-chlorophenyl)propyl]-3-oxo-N-[2-(trifluoromethyl)benzyl]isoindoline-1-carboxamide]", "IC50": 700}
{"compound": "CC(CN1C(=O)c2ccccc2C1C(=O)NCc1ccccc1Cl)c1ccc(Cl)cc1", "note": "(stereo not drawn) [N-(2-chlorobenzyl)-2-[2-(4-chlorophenyl)propyl]-3-oxoisoindoline-1-carboxamide]", "IC50": 750}
{"compound": "O=C(NCc1ccccc1)C1c2ccccc2C(=O)N1CCC1=CCCCC1", "note": "(stereo not drawn) [N-benzyl-2-(2-cyclohex-1-en-1-ylethyl)-3-oxoisoindoline-1-carboxamide]", "IC50": 1800}
{"compound": "O=C(NCc1ccccc1)C1c2cc(F)ccc2C(=O)N1Cc1ccccc1C(F)(F)F", "note": "(stereo not drawn) [N-benzyl-6-fluoro-3-oxo-2-[2-(trifluoromethyl)benzyl]isoindoline-1-carboxamide]", "IC50": 1400}
{"compound": "Cc1c(O)ccc2c1C(=O)N(Cc1ccccc1-c1ccccc1)C2C(=O)NC(C)(C)C", "note": "(single isomer, unassigned) [(R or S) 2-(biphenyl-2-ylmethyl)-N-(tert-butyl)-5-hydroxy-4-methyl-3-oxoisoindoline-1-carboxamide]", "IC50": 1100}
{"compound": "O=C(NCc1ccc(F)cc1)C1c2ccccc2C(=O)N1C(c1ccccc1)c1ccccc1", "note": "(stereo not drawn) [2-(diphenylmethyl)-N-(4-fluorobenzyl)-3-oxoisoindoline-1-carboxamide]", "IC50": 2500}
{"compound": "CC(CN1C(=O)c2ccc(Cl)cc2C1C(=O)NCc1ccccc1)c1ccc(Cl)cc1", "note": "(stereo not drawn) [N-benzyl-6-chloro-2-[2-(4-chlorophenyl)propyl]-3-oxoisoindoline-1-carboxamide]", "IC50": 150}
{"compound": "CC(CN1C(=O)c2ccccc2C1C(=O)NCc1ccccc1)c1ccc(Cl)cc1", "note": "(stereo not drawn) [N-benzyl-2-[2-(4-chlorophenyl)propyl]-3-oxoisoindoline-1-carboxamide]", "IC50": 510}
{"compound": "CC(C)(CO)CN1C(=O)c2ccc(Cl)cc2C1C(=O)NCc1cccc(Cl)c1", "note": "(stereo not drawn) [6-chloro-N-(3-chlorobenzyl)-2-(3-hydroxy-2,2-dimethylpropyl)-3-oxoisoindoline-1-carboxamide]", "IC50": 2100}
{"compound": "O=C(NCc1ccccc1)C1c2ccccc2C(=O)N1Cc1ccccc1Br", "note": "(stereo not drawn) [N-benzyl-2-(2-bromobenzyl)-3-oxoisoindoline-1-carboxamide]", "IC50": 2500}
{"compound": "CN(Cc1ccccc1)C(=O)C1c2ccccc2C(=O)N1CCc1ccc(Cl)cc1", "note": "(stereo not drawn) [N-benzyl-2-[2-(4-chlorophenyl)ethyl]-N-methyl-3-oxoisoindoline-1-carboxamide]", "IC50": 890}
{"compound": "CC(CN1C(=O)c2ccccc2C1C(=O)NCc1ccc2c(c1)OCO2)c1ccc(Cl)cc1", "note": "(stereo not drawn) [N-(1,3-benzodioxol-5-ylmethyl)-2-[2-(4-chlorophenyl)propyl]-3-oxoisoindoline-1-carboxamide]", "IC50": 620}
{"compound": "CC(C)(C)CN1C(=O)c2ccccc2C1C(=O)NCc1cccc(OC(F)F)c1", "note": "(stereo not drawn) [N-[3-(difluoromethoxy)benzyl]-2-(2,2-dimethylpropyl)-3-oxoisoindoline-1-carboxamide]", "IC50": 1300}
{"compound": "CC(CN1C(=O)c2ccccc2C1C(=O)NCc1ccc(N(C)C)cc1)c1ccc(Cl)cc1", "note": "(stereo not drawn) [2-[2-(4-chlorophenyl)propyl]-N-[4-(dimethylamino)benzyl]-3-oxoisoindoline-1-carboxamide]", "IC50": 1800}
{"compound": "CC(C)(c1ccccc1)N1C(=O)c2ccccc2C1C(=O)NCc1ccccc1", "note": "(stereo not drawn) [N-benzyl-2-(1-methyl-1-phenylethyl)-3-oxoisoindoline-1-carboxamide]", "IC50": 1700}
{"compound": "CCCCNC(=O)C1c2cc(F)ccc2C(=O)N1CC(C)c1ccc(Cl)cc1", "note": "(single isomer, unassigned) [(1S or 1R)-N-butyl-2-[(2S or 2R)-2-(4-chlorophenyl)propyl]-6-fluoro-3-oxoisoindoline-1-carboxamide]", "IC50": 15000}
{"compound": "CC(c1ccccc1)N1C(=O)c2ccccc2C1C(=O)NCc1ccccc1", "note": "(single isomer, unassigned) [(1R or 1S)-N-benzyl-3-oxo-2-[(1S or 1R)-1-phenylethyl]isoindoline-1-carboxamide]", "IC50": 1500}
{"compound": "Cc1c(OCF)ccc2c1C(=O)N(CC(C)c1ccc(Cl)cc1)C2C(=O)NC(C)(C)C", "note": "(stereo not drawn) [N-(tert-butyl)-2-[2-(4-chlorophenyl)propyl]-5-(fluoromethoxy)-4-methyl-3-oxoisoindoline-1-carboxamide]", "IC50": 3000}
{"compound": "CC(CN1C(=O)c2ccccc2C1C(=O)NCCCC(F)(F)F)c1ccc(Cl)cc1", "note": "(stereo not drawn) [2-[2-(4-chlorophenyl)propyl]-3-oxo-N-(4,4,4-trifluorobutyl)isoindoline-1-carboxamide]", "IC50": 1800}
{"compound": "CC(CN1C(=O)c2ccc(Cl)cc2C1C(=O)NC(C)(C)C)c1ccc(Cl)cc1", "note": "(stereo not drawn) [N-(tert-butyl)-6-chloro-2-[2-(4-chlorophenyl)propyl]-3-oxoisoindoline-1-carboxamide]", "IC50": 910}
{"compound": "Cc1c(O)ccc2c1C(=O)N(Cc1ccccc1-c1ccccc1)C2C(=O)NC(C)(C)C", "note": "(single isomer, unassigned) [(S or R) 2-(biphenyl-2-ylmethyl)-N-(tert-butyl)-5-hydroxy-4-methyl-3-oxoisoindoline-1-carboxamide]", "IC50": 17000}
{"compound": "CCCCNC(=O)C1c2cc(F)ccc2C(=O)N1CC(C)c1ccc(Cl)cc1", "note": "(single isomer, unassigned) [(1S or 1R)-N-butyl-2-[(2R or 2S)-2-(4-chlorophenyl)propyl]-6-fluoro-3-oxoisoindoline-1-carboxamide]", "IC50": 730}
